Source: PubChem BioAssay (NCI)
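48-hour exposure; five concentrations; linearly interpolated endpoints. GI50: concentration for 50% inhibition of growth. TGI is the concentration that stops growth completely.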

Experiments:
Test in all cases: NCI anticancer screen, dose series, 48 h
786-0 renal = system: 786-0 renal
A498 renal = system: A498 renal
CCRF-CEM leukemia = system: CCRF-CEM leukemia
COLO 205 colon = system: COLO 205 colon
EKVX NSCLC = system: EKVX NSCLC
HT29 colon = system: HT29 colon
MCF7 breast = system: MCF7 breast
RPMI-8226 leukemia = system: RPMI-8226 leukemia
SNB-19 CNS = system: SNB-19 CNS
SW-620 colon = system: SW-620 colon

Structure (SMILES)	GI50 (786-0 renal) [µM]	TGI (786-0 renal) [µM]	GI50 (A498 renal) [µM]	TGI (A498 renal) [µM]	GI50 (CCRF-CEM leukemia) [µM]	TGI (CCRF-CEM leukemia) [µM]	GI50 (COLO 205 colon) [µM]	TGI (COLO 205 colon) [µM]	GI50 (EKVX NSCLC) [µM]	TGI (EKVX NSCLC) [µM]	GI50 (HT29 colon) [µM]	TGI (HT29 colon) [µM]	GI50 (MCF7 breast) [µM]	TGI (MCF7 breast) [µM]	GI50 (RPMI-8226 leukemia) [µM]	TGI (RPMI-8226 leukemia) [µM]	GI50 (SNB-19 CNS) [µM]	TGI (SNB-19 CNS) [µM]	GI50 (SW-620 colon) [µM]	TGI (SW-620 colon) [µM]
Oc1ccc(N=Nc2nccs2)c(O)c1	3.61	27.7	18.8	40.5	2.48	8.99	3.21	12	2.1	15.3	3.61	23.1	3.06	15.1	1.62	4.91	11.5	53.1	5	22.3
Cn1c(=S)c2[nH]c(SCCCc3ccccc3)nc2n(C)c1=O	–	> 100	–	49.1	–	49.8	–	25.4	–	79.3	–	> 100	–	> 100	–	92.6	–	53.6	–	> 100
O=C1c2ccccc2C(=O)c2c(NCCN=Cc3ccccc3O)cccc21	6.8	37.9	1.87	6.67	1.43	3.88	1.41	3.82	1.79	5.44	2.26	–	1.57	5.27	0.714	2.62	4.31	> 54.5	2.14	7.07
CCOC(=O)C1=C(N)Oc2c(sc3c(C)cccc23)C1c1ccc(F)cc1 (stereo not drawn)	1.25	17.9	0.211	1.26	0.559	21.6	0.633	5.77	0.88	19.7	0.938	12.8	0.47	11.4	0.489	5.38	0.621	16.3	0.453	15.9
COc1cc(OC)c2sc(-c3ccc(-n4cncc4-c4cc(OC)c(OC)c(OC)c4)cc3)nc2c1	7.38	> 100	1.83	> 100	3.95	> 100	4.51	> 100	5.09	> 100	4.88	> 100	3.88	> 100	5.39	> 100	> 100	> 100	5.96	> 100
COc1ccc(-c2cc(Nc3ccnc(N4CCOCC4)n3)on2)cc1	0.376	8.4	0.343	2.41	0.267	> 34.5	0.239	1.53	0.685	17	0.243	11.5	0.258	12.3	0.416	18.6	0.428	17.6	0.0914	18.5
COc1cc2c3c(n(CCCN(C)CCO)c(=O)c2cc1OC)-c1cc2c(cc1C3=O)OCO2	2.92	> 100	8.19	> 40.2	–	0.473	12.6	> 100	> 44.4	> 100	9.06	> 75.2	> 28.3	> 100	1.45	8.94	8.32	> 100	0.879	> 55.2
Cn1cc(S(=O)(=O)N2CCC3=Cc4c(cnn4-c4ccc(F)cc4)C[C@]3(C(=O)c3cc(C(F)(F)F)ccn3)C2)cn1	> 100	> 100	4.64	> 100	> 100	> 100	> 100	> 100	7.98	> 100	89.7	> 100	6.34	> 100	93.7	> 100	> 100	> 100	> 100	> 100
